Data reported in US8017584B2, “GD3-mimetic peptides” (Otsuka Pharmaceutical Co., Ltd., priority 2000, dated 2011).
Where “and” joins values, the source holds several entries; their conditions need not be identical. Equal values may be shown once.

Legend:
[1] = Titer against GD3 (ELISA) of antiserum from mice immunized with MAP peptides (Example 4); format: in vivo, mice (C57BL/6); conditions: for reactivity of antiserum with GD3 (ELISA absorbance): individual mice
Experimental: Four species of GD3-mimetic peptide (MAP) obtained in Example 3 (2) was dissolved in PBS so as to attain a concentration of 200 μg/mL. The solution was added to Freund's complete (or incomplete) adjuvant (1:1, by volume), to thereby prepare an emulsion.
Eight mice (C57BL/6) were immunized by subcutaneous administration of the above emulsion (0.2 mL/mouse, in one administration, […]). Administration was performed every two weeks (for the second and subsequent administrations, Freund's incomplete adjuvant was used). After one week following respective administrations, blood was collected from the tail of each mouse, to thereby yield antiserum.
The antiserum obtained directly after the first administration will be referred to “1-st,” that obtained after the second administration will be referred to “2-nd,” and that obtained after the third administration will be referred to “3-rd.”
The titer, against GD3, of each of the antiserum samples (3×8 mice=24 samples) obtained in the (1) above was measured through ELISA as described below.
The thus-obtained purified GD3 was dissolved in methanol, whereby a GD3 solution having a concentration of 10 μg/mL was prepared. The GD3 solution was added to the wells of a 96-well micro-titer plate in amounts of 10 μL per well (which corresponds to 100 ng GD3 per well), and methanol was evaporated. Subsequently, a blocking solution (TBS supplemented with 1% BSA) was added to the wells in amounts of 50 μL per well, for blocking at 37° C. for 4 hours.
The supernatant was discarded. Each of the antiserum samples obtained in (1) above was diluted 100-fold, 400-fold, or 1,600 fold with the above-mentioned blocking solution. The diluted antiserum (50 μL) was added to each well for reaction at 4° C. overnight. The well was washed six times with TBS, and thereafter, HRP-labeled […] diluted 5,000-fold with the blocking solution was added (50 μL per well) for reaction for 2 hours at room temperature. The well was washed four times with TBS, and thereafter, enzymatic activity (peroxidase) of the well was detected with TMB solution (50 μL). The reaction was stopped with 1N HCl (50 μL), and the value corresponding to “420 nm-620 nm” was calculated.
A control sample was prepared as follows. […] The synthesized peptide was administered to a mouse for immunization, and the obtained antiserum served as a control sample. The titer of the control sample was obtained in a manner similar to that described above. (However, the number of provided mice was five, and only a 100-fold diluted solution was used.) This control peptide sample was also used in the form of MAP as described above.

anti-GD3 antibody 4F6 = test: ELISA of MAPs immobilized at various amounts with 4F6 (Example 5(2), FIG. 3); format: binding, mouse; conditions: MAPs or GD3 immobilized at various amounts
Description: (1) In a manner similar to that described in Example 3, peptides of N-terminus 9 amino acid residues or C-terminus 9 amino acid residues of GD3R1, GD3R2, GD3R3, or GD3R4. The nomenclature and sequences of respective peptides employed in the present test are shown in FIG. 2 These were employed as multi-antigen peptides (MAPs). (2) In order to extend the research on bonding between the anti-GD3 antibody 4F6 and each of the GD3-mimetic peptides shown in FIG. 1, multi-antigen peptides (MAPs) were subjected to ELISA. MAP samples having a variety of concentrations shown on the X-axis in FIG. 3 were provided, and each sample was immobilized onto the wells of a 96-well plate. Subsequently, the wells were blocked with a blocking solution (TBS supplemented with 1% BSA, 0.1% skim milk, and 0.02% Tween 20) at 4° C. overnight. 4F6 (hybridoma supernatant: used in the neat form) was added (100 μL/well) for reaction at room temperature for 2 hours. After completion of reaction, the supernatant was discarded, and the wells were washed with a washing solution (TBS supplemented with 1% FBS and 0.05% Tween 20) six times. Subsequently, the wells were allowed to react with peroxidase-labeled anti-mouse IgG (diluted 1,000-fold with a blocking solution) at room temperature for 2 hours. The wells were again washed with a washing solution four times, and the amount of peroxidase enzyme remaining in each well was detected and quantitatively determined with the substrate TMB, whereby binding of MAP to 4F6 was investigated. The test was performed in triplicate, and the values in the graph are “mean ±SD.”

[2] = system: binding between GD3 and 4F6 (anti-GD3 antibody); test: Inhibition by immobilized MAPs of binding between GD3 and 4F6 (Example 5(3), FIG. 4); parameters: species or system mouse; conditions: immobilized MAP or GD3 absorbs 4F6
Experimental: (3) The binding affinity shown in FIG. 3 was investigated in another method. Briefly, MAP samples having a variety of concentrations shown on the X-axis in FIG. 4 were provided. Each sample was immobilized onto the wells of a 96-well plate, and the wells were allowed to react with 4F6 (100 μL/well) at 4° C. overnight. On the following day, the supernatant (80 μL) was collected and added to the wells of another plate to which GD3 had been immobilized in advance (100 ng/well) for reaction at room temperature for 2 hours. After completion of reaction, the amount of antibody 4F6 that had been condensed with GD3 (i.e., that had not been absorbed by MAP) was detected and quantitatively determined through the method described (2) above, whereby inhibitory effect of MAP on binding of GD3 to 4F6 was investigated. The test was performed in triplicate, and the values in the graph are “mean ±SD.”

Anti-OAcGD3 antibody = test: ELISA of immobilized MAP-form peptides with control anti-OAcGD3 antibody; format: binding; conditions: MAP form 100 ng/well
Experimental: A 0.1M NaHCO3 solution containing a GD3-mimetic peptide of the invention in the above MAP form (100 ng/100 μL) was added to the wells of a 96-well micro-titer plate, for immobilization at room temperature for one hour. Subsequently, in a manner similar to the ELISA method employed in Example 2, binding affinity of the GD3-mimetic peptide to GD3 antibody 4F6 was investigated.
Anti-GD2 antibody and anti-OAcGD3 antibody (Cerato, E., et al., Hybridoma, 16(4), 307-316 (1997)) were used as controls (these antibodies were kindly provided by from Dr. Portoukalian).

[3] = system: binding between GD3 and 4F6; test: Inhibition by exogenously added MAPs of binding between GD3 and 4F6 (Example 5(4), FIG. 5); parameters: species or system mouse
Experimental: (4) Next, investigation was made as to whether binding between GD3R3 or GD3R4 and 4F6 occurred at the GD3 binding site of 4F6. To the wells of a plate to which GD3 had been immobilized (100 ng/well), each of the MAP samples having a variety of concentrations shown on the X-axis in FIG. 5 and 4F6 (100 μL/well) were simultaneously added, whereby an inhibitory test was performed. The test was performed in triplicate, and the values in the graph are “mean ±SD.”

## RHAYRSMAEWGFLYS (RHAYRSMAQWGFLYS) [GD3R4, tested as phage clone, MAP form or peptide]
[1]; antiserum 1st (after first administration), dilution factor 1/100, MAP 5 μg/mouse s.c.
  reactivity of antiserum with GD3 (ELISA absorbance): 0.071 and 0.247 and 0.086 (2×) and 0.08 and 0.063 and 0.082 and 0.042
[1]; antiserum 1st, dilution factor 1/400
  reactivity of antiserum with GD3 (ELISA absorbance): 0.047 and 0.108 and 0.033 and 0.041 and 0.034 and 0.037 and 0.032 and 0.021
[1]; antiserum 1st, dilution factor 1/1600
  reactivity of antiserum with GD3 (ELISA absorbance): 0.014 (2×) and 0.052 and 0.009 and 0.008 and 0.006 and 0.012 and 0.007
[1]; antiserum 2nd (after second administration), dilution factor 1/100
  reactivity of antiserum with GD3 (ELISA absorbance): 0.08 and 0.164 and 0.195 and 0.153 and 0.124 and 0.147 and 0.05 and 0.122
[1]; antiserum 2nd, dilution factor 1/400
  reactivity of antiserum with GD3 (ELISA absorbance): 0.07 and 0.114 and 0.128 and 0.093 and 0.106 and 0.079 and 0.057 and 0.058
[1]; antiserum 2nd, dilution factor 1/1600
  reactivity of antiserum with GD3 (ELISA absorbance): 0.022 and 0.026 and 0.062 and 0.033 and 0.031 and 0.041 and 0.013 and 0.019
[1]; antiserum 3rd (after third administration), dilution factor 1/100
  reactivity of antiserum with GD3 (ELISA absorbance): 0.088 and 0.176 and 0.253 and 0.19 and 0.168 and 0.113 and 0.147 and 0.116
[1]; antiserum 3rd, dilution factor 1/400
  reactivity of antiserum with GD3 (ELISA absorbance): 0.042 and 0.093 and 0.111 and 0.104 and 0.098 and 0.045 and 0.061 and 0.053
[1]; antiserum 3rd, dilution factor 1/1600
  reactivity of antiserum with GD3 (ELISA absorbance): 0.008 and 0.029 and 0.026 and 0.022 and 0.039 and 0.013 (2×) and 0.024
[1]; peptide used as immunogen (MAP)
  reactivity of antiserum with GD3: high reactivity with GD3
anti-GD3 antibody 4F6
  binding of 4F6 to immobilized sample (words, FIG. 3): in an amount-dependent manner
[2]
  inhibition of GD3 binding to 4F6 by immobilized sample (words, FIG. 4): inhibit GD3 from binding to the antibody
Anti-OAcGD3 antibody; Serum % 12.50%
  ELISA absorbance, Anti-OAcGD3 antibody: 0.045
Anti-OAcGD3 antibody; Serum % 25%
  ELISA absorbance, Anti-OAcGD3 antibody: 0.043
Anti-OAcGD3 antibody; Serum % 50%
  ELISA absorbance, Anti-OAcGD3 antibody: 0.047
Anti-OAcGD3 antibody; Serum % 100%
  ELISA absorbance, Anti-OAcGD3 antibody: 0.061
[3]; added simultaneously with 4F6 to GD3 100 ng/well
  inhibitory effect of exogenously added sample on binding between GD3 and 4F6 (words, FIG. 5): did not
[3]; deduced from FIG. 5
  order of binding strength to 4F6: GD3>GD3R3>GD3R4
